Measured values published in patent US20250129430A1, “HIGH ATP-AFFINITY PROTEIN AS THERAPEUTIC TARGET FOR INTRACTABLE CANCER MOLECULAR SUBTYPES AND INHIBITOR THEREOF” (VeraVerse Co., Ltd., priority 2021, published 2025).
Structures can show the parent of a compound that is named as a salt.

Columns and labels:
Test in all cases: Cell viability drug screen, 12-point dose-response AUC
Assay type in all cases: cell-based, human
Hs746T = Hs746T cells (SEM subtype); 72 hours
Outline: (§1)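 Twelve half-log concentrations per compound were tested on gastric cancer cells with an EMT phenotype (5×10^3/well, dosed 24 h post-seeding). Viability after 72 h was quantified via luminescence relative to 0.5% DMSO, and repeats were averaged.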

SNU484 = SNU484 cells (SEM subtype); 72 hours
Outline: as §1

SNU601 = SNU601 cells; 72 hours
Outline: as §1

YCC2 = YCC2 cells; 72 hours
Outline: as §1

SNU1750 = SNU1750 cells (SEM subtype); 72 hours
Outline: as §1

OCUM1 = OCUM1 cells; 72 hours
Outline: as §1

NCC24 = NCC24 cells; 72 hours
Outline: as §1

SNU638 = SNU638 cells; 72 hours
Outline: as §1

NCC19 = NCC19 cells; 72 hours
Outline: as §1

AGS = AGS cells (non-SEM subtype); 72 hours
Outline: (§2)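 Each cell line receives a twelve-point half-log titration of drug beginning 24 h after plating 5×10^3 cells per well. Following 72 h culture at 37 °C, luminescent signal is recorded and expressed versus vehicle. AUC is derived by the trapezoidal method.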

SNU1 = SNU1 cells; 72 hours
Outline: as §1

KATO3 = KATO3 cells; 72 hours
Outline: as §1

NCC59 = NCC59 cells; 72 hours
Outline: as §1

NCC20 = NCC20 cells; 72 hours
Outline: as §1

SNU216 = SNU216 cells (non-SEM subtype); 72 hours
Outline: as §2

SNU16 = SNU16 cells; 72 hours
Outline: as §1

SNU620 = SNU620 cells; 72 hours
Outline: as §1

SNU719 = SNU719 cells; 72 hours
Outline: as §2

NCI_N87 = NCI_N87 cells; 72 hours
Outline: as §1

MKN45 = MKN45 cells (non-SEM subtype); 72 hours
Outline: as §2

YCC3 = YCC3 cells; 72 hours
Outline: as §1

SNU668 = SNU668 cells (SEM subtype); 72 hours
Outline: as §1

MKN74 = MKN74 cells; 72 hours
Outline: as §2

YCC11 = YCC11 cells (SEM subtype); 72 hours
Outline: as §1

MKN1 = MKN1 cells; 72 hours
Outline: as §1

SNU1967 = SNU1967 cells; 72 hours
Outline: as §1

MKN28 = MKN28 cells; 72 hours
Outline: as §1

SK4 = SK4 cells (SEM subtype); 72 hours
Outline: as §1

FU97 = tested on: FU97; design: Average Area Under the Viability Curve (AUC), AUC norm value: scale not given here; details: FU97 cells; 72 hours
Outline: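 Trapezoidal AUC of a 12-point, DMSO-normalized dose-response curve. Luminescent viability was measured after 72 h of exposure at 37° C to half-log serial dilutions (0.5% DMSO control), dosed 24 h after plating FU97 cells at 5×10^3 per well.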

For CCCCCCCCCCCCCCCC[n+]1ccccc1 [Cetylpyridinium Chloride], the “Average Area Under the Viability Curve (AUC), AUC norm value” (“Average Area Under the Viability Curve” for short) (Hs746T) was 0.2943, the “Average Area Under the Viability Curve” value (SNU484) was −0.7401 and the “Average Area Under the Viability Curve” value (SNU601) was 2.328. The “Average Area Under the Viability Curve” value (YCC2) was 0.1421, the “Average Area Under the Viability Curve” value (SNU1750) was −0.3613 and the “Average Area Under the Viability Curve” value (OCUM1) was −0.1441. For the same molecule, the “Average Area Under the Viability Curve” value (NCC24) was 0.06564, the “Average Area Under the Viability Curve” value (SNU638) was −0.3142 and the “Average Area Under the Viability Curve” value (NCC19) was 1.205. The “Average Area Under the Viability Curve” value (AGS) was −0.1044, the “Average Area Under the Viability Curve” value (SNU1) was 0.5171 and the “Average Area Under the Viability Curve” value (KATO3) was 1.072. For the same molecule, the “Average Area Under the Viability Curve” value (NCC59) was 1.497, the “Average Area Under the Viability Curve” value (NCC20) was −0.2318 and the “Average Area Under the Viability Curve” value (SNU216) was −0.1483. For the same molecule, the “Average Area Under the Viability Curve” value (SNU16) was −0.1534, the “Average Area Under the Viability Curve” value (SNU620) was 0.09525 and the “Average Area Under the Viability Curve” value (SNU719) was 1.718. For the same molecule, the “Average Area Under the Viability Curve” value (NCI_N87) was 1.075, the “Average Area Under the Viability Curve” value (MKN45) was 0 and the “Average Area Under the Viability Curve” value (YCC3) was 0.3901. For the same molecule, the “Average Area Under the Viability Curve” value (SNU668) was −0.02952, the “Average Area Under the Viability Curve” value (MKN74) was −0.4176 and the “Average Area Under the Viability Curve” value (YCC11) was −1.129. The “Average Area Under the Viability Curve” value (MKN1) was 0.9994, the “Average Area Under the Viability Curve” value (SNU1967) was −0.5001 and the “Average Area Under the Viability Curve” value (MKN28) was 0.4876. The “Average Area Under the Viability Curve” value (SK4) was −1.312 and the “Average Area Under the Viability Curve” value (FU97) was −2.039.
For CO[C@@H](C(=O)N1Cc2n[nH]c(NC(=O)c3ccc(N4CCN(C)CC4)cc3)c2C1)c1ccccc1 [Danusertib (PHA-739358), Danusertib], the “Average Area Under the Viability Curve” value (Hs746T) was 1.565, the “Average Area Under the Viability Curve” value (SNU484) was −1.537 and the “Average Area Under the Viability Curve” value (SNU601) was 2.877. The “Average Area Under the Viability Curve” value (YCC2) was −0.9901, the “Average Area Under the Viability Curve” value (SNU1750) was −2.3091 and the “Average Area Under the Viability Curve” value (OCUM1) was 0.8742. For the same molecule, the “Average Area Under the Viability Curve” value (NCC24) was 0.9879, the “Average Area Under the Viability Curve” value (SNU638) was −0.2145 and the “Average Area Under the Viability Curve” value (NCC19) was 1.885. For the same molecule, the “Average Area Under the Viability Curve” value (AGS) was −1.034, the “Average Area Under the Viability Curve” value (SNU1) was −2.274 and the “Average Area Under the Viability Curve” value (KATO3) was −0.3046. For the same molecule, the “Average Area Under the Viability Curve” value (NCC59) was 1.632, the “Average Area Under the Viability Curve” value (NCC20) was −4.082 and the “Average Area Under the Viability Curve” value (SNU216) was 0. The “Average Area Under the Viability Curve” value (SNU16) was −3.76, the “Average Area Under the Viability Curve” value (SNU620) was −2.616 and the “Average Area Under the Viability Curve” value (SNU719) was 3.935. The “Average Area Under the Viability Curve” value (NCI_N87) was 2.122, the “Average Area Under the Viability Curve” value (MKN45) was 2.103 and the “Average Area Under the Viability Curve” value (YCC3) was 0.7949. The “Average Area Under the Viability Curve” value (SNU668) was 1.049, the “Average Area Under the Viability Curve” value (MKN74) was 0.1321 and the “Average Area Under the Viability Curve” value (YCC11) was −1.357. For the same molecule, the “Average Area Under the Viability Curve” value (MKN1) was −0.8271, the “Average Area Under the Viability Curve” value (SNU1967) was 0.03541 and the “Average Area Under the Viability Curve” value (MKN28) was 1.245. For the same molecule, the “Average Area Under the Viability Curve” value (SK4) was −0.6677 and the “Average Area Under the Viability Curve” value (FU97) was −2.488.
In the case of COc1cccc2c1C(=O)c1c(O)c3c(c(O)c1C2=O)C[C@@](O)(C(C)=O)C[C@@H]3O[C@H]1C[C@H](N)[C@H](O)[C@H](C)O1 [Daunorubicin HCl (Daunomycin HCl), Daunorubicin HCl], the “Average Area Under the Viability Curve” value (Hs746T) is reported as 0.1484, the “Average Area Under the Viability Curve” value (SNU484) is reported as −1.299 and the “Average Area Under the Viability Curve” value (SNU601) is reported as 1.207. The “Average Area Under the Viability Curve” value (YCC2) was 1.127, the “Average Area Under the Viability Curve” value (SNU1750) was −0.7795 and the “Average Area Under the Viability Curve” value (OCUM1) was 0.7066. The “Average Area Under the Viability Curve” value (NCC24) was −0.8801, the “Average Area Under the Viability Curve” value (SNU638) was −1.229 and the “Average Area Under the Viability Curve” value (NCC19) was 0.9357. For the same molecule, the “Average Area Under the Viability Curve” value (AGS) was −1.2278, the “Average Area Under the Viability Curve” value (SNU1) was −0.7605 and the “Average Area Under the Viability Curve” value (KATO3) was 6.288. The “Average Area Under the Viability Curve” value (NCC59) was −0.5161, the “Average Area Under the Viability Curve” value (NCC20) was −0.7736 and the “Average Area Under the Viability Curve” value (SNU216) was 0.4507. For the same molecule, the “Average Area Under the Viability Curve” value (SNU16) was −1.065, the “Average Area Under the Viability Curve” value (SNU620) was −1.239 and the “Average Area Under the Viability Curve” value (SNU719) was 3.416. The “Average Area Under the Viability Curve” value (NCI_N87) was 4.5372, the “Average Area Under the Viability Curve” value (MKN45) was 2.949 and the “Average Area Under the Viability Curve” value (YCC3) was 2.699. The “Average Area Under the Viability Curve” value (SNU668) was −0.9142, the “Average Area Under the Viability Curve” value (MKN74) was 1.215 and the “Average Area Under the Viability Curve” value (YCC11) was −1.742. For the same molecule, the “Average Area Under the Viability Curve” value (MKN1) was −0.2877, the “Average Area Under the Viability Curve” value (SNU1967) was −1.481 and the “Average Area Under the Viability Curve” value (MKN28) was 2.146. The “Average Area Under the Viability Curve” value (SK4) was 0 and the “Average Area Under the Viability Curve” value (FU97) was 0.3965.
